From ChEMBL document CHEMBL1201862, “PubChem BioAssay data set” (2004)
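Assay format: 96-well plates, 48-hour exposure. The concentration for 50% growth inhibition is given as GI50.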 The source made the active and inactive calls. Cut-off read from the data, not from the text of the source: active = GI50 up to about 1.1 µM and inactive = higher.

Columns and labels:
Assay in all cases: DTP human tumour cell line panel, 48 h
[1] = tested on: RPMI-8226
[2] = tested on: K562
[3] = tested on: MDA-MB-435
[4] = tested on: T47D
[5] = tested on: OVCAR-8
[6] = tested on: A549
[7] = tested on: NCI-H23
[8] = tested on: Hs-578T
[9] = tested on: SK-MEL-5
[10] = tested on: SK-MEL-2
[11] = tested on: NCI-H226
[12] = tested on: PC-3
[13] = tested on: CAKI-1
[14] = tested on: NCI-H460
[15] = tested on: NCI/ADR-RES
[16] = tested on: COLO 205
[17] = tested on: UACC-257
[18] = tested on: SR
[19] = tested on: A498
[20] = tested on: RXF 393

SMILES | GI50 [1] | GI50 [2] | GI50 [3] | GI50 [4] | GI50 [5] | GI50 [6] | GI50 [7] | GI50 [8] | GI50 [9] | GI50 [10] | GI50 [11] | GI50 [12] | GI50 [13] | GI50 [14] | GI50 [15] | GI50 [16] | GI50 [17] | GI50 [18] | GI50 [19] | GI50 [20]
Cc1sc2nc3n(sc4nc5sc(C)c(C)c5c(=O)n43)c(=O)c2c1C | > 100 µM (inactive) | 93.8 µM (inactive) | > 100 µM (inactive) | 0.935 µM (active) | > 100 µM (inactive) | > 100 µM (inactive) | > 100 µM (inactive) | > 100 µM (inactive) | > 100 µM (inactive) | > 100 µM (inactive) | > 100 µM (inactive) | > 100 µM (inactive) | 66.1 µM (inactive) | > 100 µM (inactive) | > 100 µM (inactive) | > 100 µM (inactive) | > 100 µM (inactive) | 75.5 µM (inactive) | – | –
CCOC(=O)c1nc2ccccc2nc1Oc1ccc(C(=O)OC)cc1 | > 100 µM (inactive) | > 100 µM (inactive) | > 100 µM (inactive) | > 100 µM (inactive) | > 100 µM (inactive) | > 100 µM (inactive) | – | > 100 µM (inactive) | > 100 µM (inactive) | > 100 µM (inactive) | > 100 µM (inactive) | > 100 µM (inactive) | > 100 µM (inactive) | > 100 µM (inactive) | > 100 µM (inactive) | > 100 µM (inactive) | > 100 µM (inactive) | – | > 100 µM (inactive) | > 100 µM (inactive)
NC1=NN(c2ccccc2)C2(c3ccncc3C(=O)O)C1C(N)=NN2c1ccccc1 (configuration not stated) | > 100 µM (inactive) | > 100 µM (inactive) | > 100 µM (inactive) | > 100 µM (inactive) | > 100 µM (inactive) | > 100 µM (inactive) | > 100 µM (inactive) | > 100 µM (inactive) | > 100 µM (inactive) | > 100 µM (inactive) | > 100 µM (inactive) | > 100 µM (inactive) | > 100 µM (inactive) | > 100 µM (inactive) | > 100 µM (inactive) | > 100 µM (inactive) | > 100 µM (inactive) | – | > 100 µM (inactive) | > 100 µM (inactive)
O=C1CCN/C(=N\C(=O)C(F)(F)F)N1CCc1c[nH]c2ccccc12 | > 100 µM (inactive) | > 100 µM (inactive) | > 100 µM (inactive) | > 100 µM (inactive) | > 100 µM (inactive) | > 100 µM (inactive) | > 100 µM (inactive) | > 100 µM (inactive) | > 100 µM (inactive) | > 100 µM (inactive) | > 100 µM (inactive) | > 100 µM (inactive) | > 100 µM (inactive) | > 100 µM (inactive) | > 100 µM (inactive) | > 100 µM (inactive) | > 100 µM (inactive) | – | > 100 µM (inactive) | > 100 µM (inactive)
O=C(Oc1c(Cl)cc(C2(c3cc(Cl)c(OC(=O)c4ccccc4)c(Cl)c3)CCCCC2)cc1Cl)c1ccccc1 | 11.9 µM (inactive) | 7.96 µM (inactive) | 10.1 µM (inactive) | 11 µM (inactive) | 15.9 µM (inactive) | 12.3 µM (inactive) | 10.4 µM (inactive) | 14.8 µM (inactive) | 10.6 µM (inactive) | 11.2 µM (inactive) | 16.3 µM (inactive) | 9.42 µM (inactive) | 5.01 µM (inactive) | 6.65 µM (inactive) | 11.6 µM (inactive) | 5.78 µM (inactive) | 12.7 µM (inactive) | – | 11.4 µM (inactive) | 11.5 µM (inactive)
O=C(Nc1ncc([N+](=O)[O-])s1)c1ccccc1O [TIZOXANIDE] | 7 µM (inactive) | 28.2 µM (inactive) | 22.6 µM (inactive) | 28.3 µM (inactive) | 17.9 µM (inactive) | 19.3 µM (inactive) | 12.5 µM (inactive) | 6.58 µM (inactive) | 15.2 µM (inactive) | 12.5 µM (inactive) | 7.55 µM (inactive) | 11.9 µM (inactive) | 29.6 µM (inactive) | 18 µM (inactive) | 13.6 µM (inactive) | 15.2 µM (inactive) | 20.7 µM (inactive) | – | 8.75 µM (inactive) | 3.39 µM (inactive)
